Results published in US20240148627A1, “[…] FOR THE SKIN” (priority 2021, published 2024).

Tested on: Vaccinia virus Elstree strain
Format: cell-based

SMILES: C=O [formaldehyde]
- Reference trial inactivation of the virus: 3.13E+00 log DIT C50
